In patent US10953100B2, “Compounds and therapeutic uses thereof” (priority 2015, dated 2021):

biological target: Anti-alpha galactosyl IgG antibody; assay: ELISA assay: streptavidin-captured biotin compound, binding of anti-alpha galactosyl IgG antibody; parameters: species or system human; conditions: geometric mean with standard error in brackets; streptavidin plate, anti-alpha galactosyl IgG 0.5 μg/mL; read-out: Concentration at half maximal binding
Protocol: Compounds containing F (representing a carbohydrate molecule capable of binding to a human anti-alpha-galactosyl antibody) and L (as biotin) were assayed for binding at both ends of the compound using an enzyme-linked immunosorbent assay (ELISA). Streptavidin-coated plates captured biotin to the surface of the plate and the binding of anti-alpha galactosyl antibodies to the alpha-galactosyl moiety was reported by a secondary antibody labelled with HRP (Horse Radish Peroxidase).
Compounds were titrated 1.5 fold from a top dose of 50 nM in phosphate buffered saline (PBS) (Sigma D8537)+0.025% DMSO (Dimethyl Sulphoxide, Sigma D8418). Streptavidin immobilizer 96-well plates (nunc 436014) were coated with 100 μL of compound at room temperature for 2 hours shaking at 500 rpm. Plates were washed with 2×200 μL PBS-T (PBS with 0.05% Tween 20 (Sigma P9416)) and 1×200 μL PBS-T with a 5 minute incubation shaking at room temperature, prior to being blocked for 1 hour at room temperature with 1% Bovine Serum Albumin (BSA, Sigma A2153) in PBS-T. After removing the blocking buffer, 50 μL of Anti-alpha galactosyl IgG antibody (Anti-alpha-galactosyl antibody was purified from human IVIG (Gammagard) by affinity purification using an alpha-galactosyl-HSA (Human Serum Albumin) sepharose column by Rockland Immunochemicals Inc.) at 0.5 μg/mL in PBS-T+1% BSA and incubated shaking at room temperature for 1 hour.
Plates were washed 2×200 μL PBS-T and 3×200 μL PBS-T with a 5 minute incubation, shaking at room temperature before the addition of 50 μL 1:5000 Goat Anti-Human IgG-HRP (horseradish peroxidase) conjugate (Abcam ab97175). The plates were incubated shaking at room temperature for 1 hour before a final wash of 2×200 μL PBS-T and 3×200 μl PBS-T with a 5 minute incubation shaking at room temperature. 100 μL TMB buffer (3,3′,5,5′-tetramethylbenzidine, a chromogenic substrate for horseradish peroxidase) (Pierce 34021) was added to the plate and allowed to develop for 5-10 minutes before the samples were quenched with 50 μL 2M sulfuric acid (Sigma 258105). The absorbance was read at 450 nm on an Envision plate reader (Perkin Elmer). Results from wells (duplicate) were averaged and the 50% binding affinity calculated.
The concentration at which half-maximal binding is achieved is reported as a geometric mean with standard error in brackets. The number of independent experiments is also reported. In order to achieve a signal both ends of the molecule are required to bind (biotin to streptavidin and alpha-galactosyl to anti-alpha galactosyl antibodies) simultaneously.

| EC50 | SMILES |
| --- | --- |
| 16 nM | CC(=O)N[C@H]1[C@H](OCCCNC(=O)COc2ccc(-c3cc(OCC(=O)NCCCO[C@@H]4O[C@H](CO)[C@@H](O[C@@H]5O[C@H](CO)[C@H](O)[C@H](O[C@H]6O[C@H](CO)[C@H](O)[C@H](O)[C@H]6O)[C@H]5O)[C@H](O)[C@H]4NC(C)=O)cc(C(=O)NCCNC(=O)CCCC[C@@H]4SC[C@@H]5NC(=O)N[C@@H]54)c3)cc2)O[C@H](CO)[C@@H](O[C@@H]2O[C@H](CO)[C@H](O)[C@H](O[C@H]3O[C@H](CO)[C@H](O)[C@H](O)[C@H]3O)[C@H]2O)[C@@H]1O [Example 7] |
| 11.9 nM | CC(=O)N[C@H]1[C@H](OCCCNC(=O)COc2cccc(-c3cc(OCC(=O)NCCCO[C@@H]4O[C@H](CO)[C@@H](O[C@@H]5O[C@H](CO)[C@H](O)[C@H](O[C@H]6O[C@H](CO)[C@H](O)[C@H](O)[C@H]6O)[C@H]5O)[C@H](O)[C@H]4NC(C)=O)cc(C(=O)NCCNC(=O)CCCC[C@@H]4SC[C@@H]5NC(=O)N[C@@H]54)c3)c2)O[C@H](CO)[C@@H](O[C@@H]2O[C@H](CO)[C@H](O)[C@H](O[C@H]3O[C@H](CO)[C@H](O)[C@H](O)[C@H]3O)[C@H]2O)[C@@H]1O [Example 14] |
| 17.7 nM | CC(=O)N[C@H]1[C@H](OCCCNCc2cccc(C(=O)NCCNC(=O)CCCC[C@@H]3SC[C@@H]4NC(=O)N[C@@H]43)c2)O[C@H](CO)[C@@H](O[C@@H]2O[C@H](CO)[C@H](O)[C@H](O[C@H]3O[C@H](CO)[C@H](O)[C@H](O)[C@H]3O)[C@H]2O)[C@@H]1O [Example 17, 3-(((3-(((2R,3R,4R,5S,6R)-3-Acetamido-5-(((2S,3R,4S,5S,6R)-3,5-dihydroxy-6-(hydroxymethyl)-4-(((2R,3R,4S,5R,6R)-3,4,5-trihydroxy-6-(hydroxymethyl)tetrahydro-2H-pyran-2-yl)oxy)tetrahydro-2H-pyran-2-yl)oxy)-4-hydroxy-6-(hydroxymethyl)tetrahydro-2H-pyran-2-yl)oxy)propyl)amino)methyl)-N-(2-(5-((3aS,4S,6aR)-2-oxohexahydro-1H-thieno[3,4-d]imidazol-4-yl)pentanamido)ethyl)benzamide] |
| 21.3 nM | CC(=O)NC1C(OCCCNC(=O)CCCNC(=O)CCOCCOCCOCCOCCNC(=O)COc2cc(OCC(=O)NCCOCCOCCOCCOCCC(=O)NCCCC(=O)NCCCOC3OC(CO)C(OC4OC(CO)C(O)C(OC5OC(CO)C(O)C(O)C5O)C4O)C(O)C3NC(C)=O)cc(-c3cc(OCC(=O)NCCOCCOCCOCCOCCC(=O)NCCCC(=O)NCCCOC4OC(CO)C(OC5OC(CO)C(O)C(OC6OC(CO)C(O)C(O)C6O)C5O)C(O)C4NC(C)=O)cc(C(=O)NCCNC(=O)CCCCC4SCC5NC(=O)NC54)c3)c2)OC(CO)C(OC2OC(CO)C(O)C(OC3OC(CO)C(O)C(O)C3O)C2O)C1O (stereo not shown) [Example 59] |
| 9.1 nM | CC(=O)N[C@H]1[C@H](OCCCNC(=O)COc2cc(OCC(=O)NCCCO[C@@H]3O[C@H](CO)[C@@H](O[C@@H]4O[C@H](CO)[C@H](O)[C@H](O[C@H]5O[C@H](CO)[C@H](O)[C@H](O)[C@H]5O)[C@H]4O)[C@H](O)[C@H]3NC(C)=O)cc(C(=O)NCCNC(=O)CCCC[C@@H]3SC[C@@H]4NC(=O)N[C@@H]43)c2)O[C@H](CO)[C@@H](O[C@@H]2O[C@H](CO)[C@H](O)[C@H](O[C@H]3O[C@H](CO)[C@H](O)[C@H](O)[C@H]3O)[C@H]2O)[C@@H]1O [Example 5] |
| 11.5 nM | CC(=O)NC1C(OCCCNC(=O)COc2ccc(-c3cc(OCC(=O)NCCCOC4OC(CO)C(OC5OC(CO)C(O)C(OC6OC(CO)C(O)C(O)C6O)C5O)C(O)C4NC(C)=O)cc(C(=O)NCCNC(=O)CCOCCOCCOCCOCCOCCOCCOCCOCCOCCOCCOCCOCCNC(=O)CCCCC4SCC5NC(=O)NC54)c3)cc2)OC(CO)C(OC2OC(CO)C(O)C(OC3OC(CO)C(O)C(O)C3O)C2O)C1O (stereo not shown) [Example 15] |
| 19 nM | CC(=O)N[C@H]1[C@H](OCCCNC(=O)COc2ccc(-c3cccc(C(=O)NCCNC(=O)CCCC[C@@H]4SC[C@@H]5NC(=O)N[C@@H]54)c3)cc2)O[C@H](CO)[C@@H](O[C@@H]2O[C@H](CO)[C@H](O)[C@H](O[C@H]3O[C@H](CO)[C@H](O)[C@H](O)[C@H]3O)[C@H]2O)[C@@H]1O [Example 11] |
